Experimental data from patent EP4786487A1, “PEPTIDE” (Peptidream Inc, priority 2023, dated 2025).
Like-named read-outs stand apart in the source and are kept apart here. Starred links: 1 amine or outer side, 2 acyl side, 3 side chain; linkers in the order of their positions; H or OH if unused. Positions of bridges follow the written chain, without caps; N, C: chain ends. Non-standard residues stand in square brackets, D forms with d. Residues, ends and D or L forms follow the SMILES beside them. No end group written: not given here. *: point of attachment. Trp(6-OH,1-(4-HO2C-Ph)) = N[C@@H](Cc1cn(-c2ccc(C(=O)O)cc2)c2cc(O)ccc12)C(=O)O; Phe(3-OCH2COOH) = N[C@@H](Cc1cccc(OCC(=O)O)c1)C(=O)O; N(CH2CH2CO)Gly = O=C(CN(CCC(=O)[*:3])[*:1])[*:2]; NMePhe(4-CH2NH2) = CN[C@@H](Cc1ccc(CN)cc1)C(=O)O; Piperidine(4-CH2CH2CONH2) = NC(=O)CCC1CCN(*)CC1; Phe(4-COOH) = N[C@@H](Cc1ccc(C(=O)O)cc1)C(=O)O; Trp(7-aza) = N[C@@H](Cc1c[nH]c2ncccc12)C(=O)O; Gly(N(CH2)3COOH) = O=C(O)CCCNCC(=O)O; X1 = CCCCCCC[C@H](N[*:1])C(=O)[*:2]; NMeAad = CN[C@@H](CCCC(=O)O)C(=O)O; NMeF = CN[C@@H](Cc1ccccc1)C(=O)O; 4Pal = N[C@@H](Cc1ccncc1)C(=O)O; NMeDap = CN[C@@H](CN)C(=O)O; NMeA = CN[C@@H](C)C(=O)O; Sar = CNCC(=O)O

Key:
Type in all cases: cell-based
[1] = molecular target: T1, Myostatin (Homo sapiens, UniProt O14793); assay: Reporter gene assay for myostatin signaling in HepG2 cell line, Evaluation Procedure (1), myostatin inhibition
T1 construct: active myostatin (also called mature myostatin) is a homodimer consisting of two C-terminal growth factor domains; purchased R&D systems 788-G8/CF
T1 sequence (O14793 267-375): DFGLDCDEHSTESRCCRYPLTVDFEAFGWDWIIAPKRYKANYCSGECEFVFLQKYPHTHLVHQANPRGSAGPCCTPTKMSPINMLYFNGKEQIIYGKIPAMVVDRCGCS
Description: (§1) In this Example, the in vitro myostatin inhibitory effects of the peptides synthesized in Examples 1 and 2 were evaluated using a reporter gene assay for myostatin signaling in HepG2 cell line.
(§2) HepG2 cell line (HB-8065, ATCC) cultured in EMEM (055-08975, WAKO Industries) containing 10% FBS (10270106, Gibco) and 50 µg/mL gentamicin (11980-14, Nacalai Tesque) was seeded in 96-well plates (167008, Thermo) at 2.0 × 10^4 cells/well and incubated in a CO2 incubator (37°C, 5% CO2) for 24 hours. The pGL3(CAGA)12-luc plasmid, namely a pGL3 vector (E1751, Promega) having a luciferase gene inserted downstream of a promoter sequence with 12 CAGA repeats attached, was added to the wells along with a transfection reagent (X-treamGENE9 DNA Transfection Reagent, 6365809001, Roche) at a concentration of 0.04 µg/well. The cell line was cultured in a CO2 incubator (37°C, 5% CO2) for 24 hours for transfection. The medium was discarded and replaced with EMEM containing 50 µL/well of 0.1% bovine serum albumin (A7030, Sigma) and 50 µg/mL gentamicin, and incubated in a CO2 incubator (37°C, 5% CO2) for 2 hours.
(§3) Myostatin (788-G8/C, R&D systems) or GDF-11 (1958-GD-G8/CF, R&D systems) was added so that the final concentrations were those listed in Table 5.
(§4) A 4-fold dilution series of various peptides synthesized in Examples 1 and 2 was added to achieve 0.006-100 nmol/L (myostatin inhibition) and 0.12-2000 nmol/L (GDF-11 inhibition). At this time, blank wells, in which neither myostatin, GDF-11, nor each peptide was added, were also prepared and incubated in a CO2 incubator (37°C, 5% CO2) for 20 to 24 hours.
(§5) The medium containing the cells was removed, and a mixture containing PBS (14190144, Thermo) and a chromogenic substrate One-Glo Luciferase Assay System (E6120, Promega) at a ratio of 1:1 was added to each well at 100 µL/well. This was stirred with a plate shaker for 5 min and transferred to a 384-well plate (3570, Corning) at a volume of 20 µL/well.
(§6) The plate was centrifuged at 1,000 × g for 1 min and the luminescence signal (700 nm luminescence) was measured using a plate reader (Envision 2104, PerkinElmer). Based on the measured values, IC50 values of the peptides were calculated using software (Prism 9, GraphPad). […]
(§7) In this Example, the in vitro myostatin inhibitory effects of the peptides synthesized in Examples 10 and 11 were evaluated according to the Evaluation Procedure (1) in Example 3.

[2] = test system: Myostatin; assay: as above; conditions: for Selectivity: GDF-11 IC50 versus Myostatin IC50
Description: as §1, §2, §3, §4, §5, §6, §7

[3] = molecular target: T2, GDF-11 (Homo sapiens, UniProt O95390); assay: Reporter gene assay for myostatin signaling in HepG2 cell line, Evaluation Procedure (1), GDF-11 inhibition
T2 construct: purchased R&D systems 1958-GD-G8/CF
T2 sequence (O95390 299-407): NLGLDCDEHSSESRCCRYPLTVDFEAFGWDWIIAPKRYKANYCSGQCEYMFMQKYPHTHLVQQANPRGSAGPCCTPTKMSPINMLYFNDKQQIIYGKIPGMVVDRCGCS
Description: as §1, §2, §3, §4, §5, §6, §7

[4] = Method A: Myostatin 10 ng/mL, read-out: IC50 (Luciferase) Myostatin HepG2
[5] = Method A: GDF-11 10 ng/mL, read-out: IC50 (Luciferase) GDF-11 HepG2
[6] = HepG2, luciferase reporter, Evaluation Procedure (1), Method D
[7] = HepG2, luciferase reporter, Evaluation Procedure (1), Method D, read-out: IC50 (Luciferase) GDP-11 HepG2

| Compound | IC50 [1, 6] | IC50 [3, 7] | also measured |
| --- | --- | --- | --- |
| CC[C@H](C)[C@@H]1NC(=O)[C@H](Cc2ccccc2)N(C)C(=O)[C@H](Cc2ccc(O)cc2)NC(=O)[C@H](Cc2c[nH]c3ncccc23)NC(=O)[C@H](C)NC(=O)CN(CCCC(=O)O)C(=O)CSC[C@H](C(=O)O)NC(=O)[C@H](Cc2ccccc2)N(C)C(=O)[C@H](C)N(C)C(=O)[C@H](CC(C)C)NC(=O)[C@H](Cc2ccccc2)N(C)C(=O)[C@H](CCCNC(=N)N)NC(=O)[C@H](Cc2ccc(C(=O)O)cc2)NC(=O)[C@H](Cc2ccccc2)NC(=O)CN(C)C1=O [Myostatin_99_Variant_20-OH] ({CH2CO}-[Gly(N(CH2)3COOH)]A[Trp(7-aza)]Y[NMeF]I[Sar]F[Phe(4-COOH)]R[NMeF]L[NMeA][NMeF][dC]-OH; thioether N-15) | – | – | IC50 [1, 4]: 44.8 nM; Selectivity ([2]; Method A): 45; IC50 [3, 5]: 2010 nM |
| CC[C@H](C)[C@@H]1NC(=O)[C@H](Cc2ccccc2)N(C)C(=O)[C@H](Cc2ccc(O)cc2)NC(=O)[C@H](Cc2c[nH]c3ncccc23)NC(=O)[C@H](C)NC(=O)CN(CCCC(=O)O)C(=O)CSC[C@H](C(=O)O)NC(=O)[C@H](Cc2ccccc2)N(C)C(=O)[C@H](C)N(C)C(=O)[C@H](CC(C)C)NC(=O)[C@H](Cc2ccccc2)N(C)C(=O)[C@H](CCCNC(=N)N)NC(=O)[C@H](Cc2ccc(C(=O)O)cc2)NC(=O)[C@H](Cc2ccncc2)NC(=O)CN(C)C1=O [Myostatin_99_Variant_21-OH] ({CH2CO}-[Gly(N(CH2)3COOH)]A[Trp(7-aza)]Y[NMeF]I[Sar][4Pal][Phe(4-COOH)]R[NMeF]L[NMeA][NMeF][dC]-OH; thioether N-15) | – | – | IC50 [1, 4]: 106 nM; Selectivity ([2]; Method A): 41; IC50 [3, 5]: 4320 nM |
| CCCCCCC[C@@H]1NC(=O)[C@@H]2Cc3ccc(cc3)CNC(=O)C[C@H](NC(=O)CSC[C@H](C(=O)O)NC(=O)[C@H](Cc3ccccc3)N(C)C(=O)[C@H](C)N(C)C1=O)C(=O)N[C@@H](C)C(=O)N[C@@H](Cc1c[nH]c3ccccc13)C(=O)N[C@@H](Cc1ccc(O)cc1)C(=O)N(C)[C@@H](Cc1ccccc1)C(=O)N[C@@H]([C@@H](C)CC)C(=O)N(C)[C@@H](C)C(=O)N[C@@H](Cc1cccc(OCC(=O)O)c1)C(=O)N[C@@H](Cc1ccc(C(=O)O)cc1)C(=O)N[C@@H](CCCNC(=N)N)C(=O)N2C [Myostatin_99_v386] ({CH2CO}-DAWY[NMeF]I[NMeA][Phe(3-OCH2COOH)][Phe(4-COOH)]R[NMePhe(4-CH2NH2)][X1][NMeA][NMeF][dC]-OH; lactam 1-11 (inferred); thioether N-15 (inferred); N-terminus and C-terminus assumed) | – | – | Selectivity ([2]; Method D): 294.1 |
| A-R-W-Y-MeF-I-MeG-Y-Y-R-MeF-L-MeA-MeF-C (ARWY[NMeF]I[Sar]YYR[NMeF]L[NMeA][NMeF]C) [SEQ ID NO: 1] | – | – | inhibitory activity against myostatin ([2]; HepG2 reporter assays, statement in words): confirmed to have myostatin inhibitory activity |

Further lines, with some results ahead:

| IC50 [1, 6] | IC50 [3, 7] | Compound | also measured |
| --- | --- | --- | --- |
| 0.04 nM | 25.5 nM | CCCCCCC[C@@H]1NC(=O)[C@H](Cc2ccccc2)N(C)C(=O)[C@H](CCCNC(=N)N)NC(=O)[C@H](Cc2ccc(C(=O)O)cc2)NC(=O)[C@H](Cc2cccc(OCC(=O)O)c2)NC(=O)[C@H]2CCCN2C(=O)[C@H]([C@@H](C)CC)NC(=O)[C@H](Cc2ccccc2)N(C)C(=O)[C@H](Cc2ccc(O)cc2)NC(=O)[C@H](Cc2cn(-c3ccc(C(=O)O)cc3)c3cc(O)ccc23)NC(=O)[C@H](C)NC(=O)CN2CCC(=O)NC[C@@H](C(=O)N(C)[C@@H](Cc3ccccc3)C(=O)N[C@@H](C(=O)N3CCC(CCC(N)=O)CC3)CSCC2=O)N(C)C1=O [Myostatin_99_v478] ({CH2CO}-[N(CH2CH2CO)Gly]A[Trp(6-OH,1-(4-HO2C-Ph))]Y[NMeF]I[dP][Phe(3-OCH2COOH)][Phe(4-COOH)]R[NMeF][X1][NMeDap][NMeF][dC]-{Piperidine(4-CH2CH2CONH2)}; lactam 1-13; thioether N-15) | – |
| 0.11 nM | 90.2 nM | CCCCCCC[C@@H]1NC(=O)[C@H](Cc2ccccc2)N(C)C(=O)[C@H](CCCNC(=N)N)NC(=O)[C@H](Cc2ccc(C(=O)O)cc2)NC(=O)[C@H](Cc2cccc(OCC(=O)O)c2)NC(=O)[C@H]2CCCN2C(=O)[C@H]([C@@H](C)CC)NC(=O)[C@H](Cc2ccccc2)N(C)C(=O)[C@H](Cc2ccc(O)cc2)NC(=O)[C@H](Cc2cn(-c3ccc(C(=O)O)cc3)c3cc(O)ccc23)NC(=O)[C@H](C)NC(=O)CN(CCCC(=O)O)C(=O)[C@H](C)N(C)C(=O)[C@@H](C)NC(=O)[C@H](Cc2ccccc2)N(C)C(=O)[C@H](C)N(C)C1=O [Myostatin_99_v482] (cyclo(A[Trp(6-OH,1-(4-HO2C-Ph))]Y[NMeF]I[dP][Phe(3-OCH2COOH)][Phe(4-COOH)]R[NMeF][X1][NMeA][NMeF][dA][NMeA][Gly(N(CH2)3COOH)])) | – |
| 0.14 nM | 59.9 nM | CCCCCCC[C@@H]1NC(=O)[C@H](Cc2ccccc2)N(C)C(=O)[C@H](CCCNC(=N)N)NC(=O)[C@H](Cc2ccc(C(=O)O)cc2)NC(=O)[C@H](Cc2cccc(OCC(=O)O)c2)NC(=O)[C@H]2CCCN2C(=O)[C@H]([C@@H](C)CC)NC(=O)[C@H](Cc2ccccc2)N(C)C(=O)[C@H](Cc2ccc(O)cc2)NC(=O)[C@H](Cc2cn(-c3ccc(C(=O)O)cc3)c3cc(O)ccc23)NC(=O)[C@H](C)NC(=O)[C@H](C)NC(=O)[C@H](C)N(C)C(=O)[C@@H](C)NC(=O)[C@H](Cc2ccccc2)N(C)C(=O)[C@H](C)N(C)C1=O [Myostatin_99_v483] (cyclo(AA[Trp(6-OH,1-(4-HO2C-Ph))]Y[NMeF]I[dP][Phe(3-OCH2COOH)][Phe(4-COOH)]R[NMeF][X1][NMeA][NMeF][dA][NMeA])) | – |
| 0.18 nM | 53.2 nM | CCCCCCC[C@@H]1NC(=O)[C@H](Cc2ccccc2)N(C)C(=O)[C@H](CCCNC(=N)N)NC(=O)[C@H](Cc2ccc(C(=O)O)cc2)NC(=O)[C@H](Cc2cccc(OCC(=O)O)c2)NC(=O)[C@H]2CCCN2C(=O)[C@H]([C@@H](C)CC)NC(=O)[C@H](Cc2ccccc2)N(C)C(=O)[C@H](Cc2ccc(O)cc2)NC(=O)[C@H](Cc2cn(-c3ccc(C(=O)O)cc3)c3cc(O)ccc23)NC(=O)[C@H](C)NC(=O)CN(CCCC(=O)O)C(=O)CSC[C@H](C(=O)N2CCC(CCC(N)=O)CC2)NC(=O)[C@H](Cc2ccccc2)N(C)C(=O)[C@H](C)N(C)C1=O [Myostatin_99_v488] ({CH2CO}-[Gly(N(CH2)3COOH)]A[Trp(6-OH,1-(4-HO2C-Ph))]Y[NMeF]I[dP][Phe(3-OCH2COOH)][Phe(4-COOH)]R[NMeF][X1][NMeA][NMeF][dC]-{Piperidine(4-CH2CH2CONH2)}; thioether N-15) | – |
| 0.7 nM | 112 nM | CCCCCCC[C@@H]1NC(=O)[C@@H]2Cc3ccc(cc3)CNC(=O)CCC[C@@H](C(=O)N[C@@H](C)C(=O)N[C@@H](Cc3cn(-c4ccc(C(=O)O)cc4)c4cc(O)ccc34)C(=O)N[C@@H](Cc3ccc(O)cc3)C(=O)N(C)[C@@H](Cc3ccccc3)C(=O)N[C@@H]([C@@H](C)CC)C(=O)N3CCC[C@@H]3C(=O)N[C@@H](Cc3cccc(OCC(=O)O)c3)C(=O)N[C@@H](Cc3ccc(C(=O)O)cc3)C(=O)N[C@@H](CCCNC(=N)N)C(=O)N2C)N(C)C(=O)[C@H](C)N(C)C(=O)[C@@H](C)NC(=O)[C@H](Cc2ccccc2)N(C)C(=O)[C@H](C)N(C)C1=O [Myostatin_99_v490] (cyclo(A[Trp(6-OH,1-(4-HO2C-Ph))]Y[NMeF]I[dP][Phe(3-OCH2COOH)][Phe(4-COOH)]R[NMePhe(4-CH2NH2)][X1][NMeA][NMeF][dA][NMeA][NMeAad]); lactam 10-16) | – |
